Experimental data taken from patent US9777054B2, “Soluble fibrin inhibitory peptides and uses thereof” (ENSION INC., priority 2006, dated 2017).
Entries after “also recorded” stand apart in the source; their conditions may differ. No end group written: not given here.

Legend:
A375 cells = assay: Monocyte adherence to tumor cells under flow conditions (FCS2 perfusion stage incubator); format: cell-based, human
Experimental: Human peripheral blood monocytes, isolated by density centrifugation and adherence were labeled with the carbocyanine dye (DiI, C18; Molecular Probes, Eugene, Oreg.). They were passed across adherent soluble fibrin treated or untreated tumor cells at a shear force corresponding to that present in small blood capillaries for 1 h (FIGS. 7A and 7B).
The number of tumor cells and adherent monocytes were counted in the images and leukocyte adherence was expressed as the number of leukocytes per tumor cell.
Lyophilized murine anti-human monoclonal blocking antibodies directed against αLβ2 (clone 25.3) and CD54 (clone 84H10) were obtained from Beckman-Coulter (Miami, Fla.), as were purified immunoglobulin matched isotypic controls (IgG1 (mouse) Clone 679.1Mc7). Blocking monoclonal anti-£\M£]2 (clone ICRF44) was obtained from PharMingen (BD Biosciences, San Jose, Calif.). All antibody inhibition experiments were performed using pre-incubation of target cells with 5 μg antibody/106 cells. Experiments were performed in triplicate wells and the results were expressed as the mean+SD for three separate experiments).
To simulate the fluid shear stresses present in vivo, coverslips containing Calcein AM labeled, adherent A375 were loaded into the FCS2 stage incubator (Bioptechs Inc., Butler, Pa.) and mounted on the stage of a Leica DMIRB inverted fluorescence microscope equipped with a Hamamatsu Color Chilled 3CCD camera (C5810 model) attached to a computer for data acquisition.
The FCS2 incubator is a closed near-laminar flow, temperature-controlled perfusion chamber which facilitates direct observation and scanning of the cells on the coverslip during perfusion with solutions or cell suspensions. It was designed to maintain accurate thermal control and allow high-volume near-laminar flow perfusion. A fluid pathway was formed (Dimensions 0.5 mm×14 mm×25 mm) by separating the microaqueduct slide from the coverslip containing cells with a single silicone gasket with a rectangular bore, generating nearlaminar flow conditions during perfusion. The stage incubator was initially connected to a peristaltic pump on the afferent side using 0.062 inch bore S/P medical grade silicone tubing (Fisher Scientific, Suwanee, Ga.), with a three way in-line tap closed to the incubator inlet. The efferent side was connected to waste. After connection of the electronic temperature control, the coverslips were perfused with RPMI to briefly buffer the cells at 37° C. for fifteen minutes (flow rate of 0.5 ml/min). The inlet was then connected to the tube containing the appropriately treated monocyte suspension (3 mL). The efferent tubing was also connected to the same tube, and Di-I (Gant et al., 1992) labelled monocytes were recirculated across the tumor cells for 1 h, after which, the tubing was set up to the initial configuration and the cells were again washed with RPMI for 10 min to remove unbound monocytes.
Individual still images in five randomly chosen fields of view were captured and stored on the computer. The number of monocytes (red) and tumor cells (green) were counted in each field of view and the mean monocyte/tumor cell ratio was calculated. The wall shear stress was calculated using the momentum balance for a Newtonian fluid. The viscosity of water at 37° C. was used as an approximation of the viscosity of the buffer used (RPMI 1640; 0.007 poise). As described in the following equation, the wall shear stress experienced by the monolayer is equal to: T=3 μQ/2a^2b, where T=wall shear stress, μ=coefficient of viscosity (0.007 Poise), Q=volumetric flow rate (0.0083 cm3/s), a=half channel height (0.025 cm), and b=channel width (1.5 cm). The wall shear rate is given by T/μ. […]

fibrinogen = target: T1, fibrinogen (Homo sapiens, UniProt P02679); assay: Thrombin induced clotting of purified fibrinogen; format: biochemical; settings: fibrinogen 0.5 mg/ml, thrombin 0.125 U/ml, peptide 4 mmol/L, room temperature
T1 construct: purchased American Diagnostica Inc., Greenwich, Conn
T1 sequence (P02679 27-437 isoform P02679-2 limits assumed): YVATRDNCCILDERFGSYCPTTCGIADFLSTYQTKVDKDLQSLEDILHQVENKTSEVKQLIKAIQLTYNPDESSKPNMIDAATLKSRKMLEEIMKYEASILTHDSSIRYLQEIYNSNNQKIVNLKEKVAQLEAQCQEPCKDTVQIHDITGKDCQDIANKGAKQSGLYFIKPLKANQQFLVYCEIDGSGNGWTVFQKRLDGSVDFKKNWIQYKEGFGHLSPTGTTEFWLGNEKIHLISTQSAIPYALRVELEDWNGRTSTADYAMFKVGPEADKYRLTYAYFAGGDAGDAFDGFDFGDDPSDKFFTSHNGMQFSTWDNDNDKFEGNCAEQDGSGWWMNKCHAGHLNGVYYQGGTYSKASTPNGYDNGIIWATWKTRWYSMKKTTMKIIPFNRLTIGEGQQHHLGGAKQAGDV
T1 sequence (P02671 20-629 partner limits assumed): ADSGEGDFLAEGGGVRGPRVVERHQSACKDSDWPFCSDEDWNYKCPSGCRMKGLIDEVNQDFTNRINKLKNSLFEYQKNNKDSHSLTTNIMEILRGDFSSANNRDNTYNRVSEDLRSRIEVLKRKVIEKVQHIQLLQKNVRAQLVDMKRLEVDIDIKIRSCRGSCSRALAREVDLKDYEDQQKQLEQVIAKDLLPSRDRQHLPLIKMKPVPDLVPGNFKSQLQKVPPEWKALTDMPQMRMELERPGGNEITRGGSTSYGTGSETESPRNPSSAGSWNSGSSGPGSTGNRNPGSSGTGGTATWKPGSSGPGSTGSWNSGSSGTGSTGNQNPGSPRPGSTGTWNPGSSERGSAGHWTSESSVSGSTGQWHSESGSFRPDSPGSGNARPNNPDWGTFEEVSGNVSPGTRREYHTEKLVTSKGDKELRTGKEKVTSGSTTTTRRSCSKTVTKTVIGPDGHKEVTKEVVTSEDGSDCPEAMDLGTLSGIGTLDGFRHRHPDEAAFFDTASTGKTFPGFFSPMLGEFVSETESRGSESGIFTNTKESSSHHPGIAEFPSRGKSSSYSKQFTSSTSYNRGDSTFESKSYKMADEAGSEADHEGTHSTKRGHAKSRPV
T1 sequence (P02675 31-491 partner): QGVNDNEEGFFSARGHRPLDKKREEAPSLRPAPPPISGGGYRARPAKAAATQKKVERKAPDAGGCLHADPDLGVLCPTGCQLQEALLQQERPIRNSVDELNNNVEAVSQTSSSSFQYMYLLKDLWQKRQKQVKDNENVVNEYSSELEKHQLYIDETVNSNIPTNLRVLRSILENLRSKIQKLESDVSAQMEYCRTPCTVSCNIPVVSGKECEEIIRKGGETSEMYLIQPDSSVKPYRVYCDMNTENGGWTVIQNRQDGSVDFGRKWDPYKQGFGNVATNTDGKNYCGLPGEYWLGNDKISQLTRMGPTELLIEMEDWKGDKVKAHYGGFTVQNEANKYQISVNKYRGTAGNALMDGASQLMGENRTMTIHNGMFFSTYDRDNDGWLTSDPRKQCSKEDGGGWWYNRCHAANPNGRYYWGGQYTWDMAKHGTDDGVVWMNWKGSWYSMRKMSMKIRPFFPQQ
Experimental: Experiments were performed to determine if the specific fibrin(ogen) adherence inhibitors also affected (1) fibrinogen clotting in the presence of thrombin, or (2) normal coagulation in recalcified plasma.
Thrombin (0.625 μl (stock 100 U/ml) was added to RPMI 1640 medium containing 25 μl (stock 10 mg/ml) […] or in the presence of 4 mmol/L specific peptide or peptide combination in a total volume of 1 ml. The tubes were left at room temperature and clotting was determined by observed gelation of the solution every 30 s, and the approximate clotting time was recorded. An additional control was also tested in which the fibrin polymerization inhibitor GPRP-NH2 was added to fibrinogen in the presence of P1-P4 prior to thrombin addition. The tube was left at room temperature to determine if clotting was observed.

[1] = effector and tumor cells both pre-treated with single component of the sFn mixture
[2] = sFn treated with single peptide, incubated with one cell type (P3 tumor cells / P4 monocytes), other cell type untreated
[3] = one cell type treated with peptide only (P1 tumor cells / P2 monocytes), the other cell type with sFn
[4] = one cell type treated with single peptide then sFn (P1 A375 / P2 monocytes), other cell type with sFn (Bars 4, 5)

**Q.** fibrinogen [reference compound] was tested. Which “effect on monocyte adherence” value (A375 cells; [1]) did it give?
**A.** no significant (P>0.05 compared to untreated cell adherence) inhibition was observed; also recorded: did not significantly inhibit adherence

**Q.** With “KFGDPLGYEDVIPEADREG (CHAIN peptide comprising the soluble fibrin protein-binding domain in soluble fibin) [Peptide P4]” as the substance, how does the “inhibition of monocyte adherence” value (A375 cells; sFn pre-treated with P4 and incubated with monocytes, tumor cells incubated with sFn (Bar 7)) read?
**A.** no inhibition was observed

**Q.** What about the “inhibition of monocyte adherence” value (A375 cells; [2]) of the same substance?
**A.** no inhibition was observed

**Q.** Which results are given for “Gly-Pro-Arg-Pro-amide (GPRP-NH2) [reference compound]”?
**A.** effect on monocyte adherence (A375 cells; effector and tumor cells both pre-treated with single component of the sFn mixture, listed as GPRP): did not significantly inhibit adherence; effect on monocyte adherence (A375 cells; effector and tumor cells both pre-treated with single component of the sFn mixture, listed as GPRPNH2): no significant (P>0.05 compared to untreated cell adherence) inhibition was observed; clotting time (fibrinogen): > 15 min

**Q.** How did the “effect on monocyte adherence” value (A375 cells; [1]) turn out when thrombin [reference compound] was run?
**A.** no significant (P>0.05 compared to untreated cell adherence) inhibition was observed; also recorded: did not significantly inhibit adherence

**Q.** Which results are given for “NNQKIVNLKEKVAQLEA (CHAIN peptide comprising the cell-binding domain in soluble fibin.) [Peptide P1]”?
**A.** effect on monocyte adherence (A375 cells; [3]): Inhibition was still observed; also recorded: inhibited adherence to a similar level to that of sFn treatment of both cells; inhibition of monocyte adherence (A375 cells; [4]): inhibition was still observed

**Q.** What does the source list for “YKSMKKTTMKIIPFNRLTIF (CHAIN peptide comprising the cell-binding domain in soluble fibin.) [Peptide P2]”?
**A.** effect on monocyte adherence (A375 cells; [3]): Inhibition was also observed; also recorded: inhibited adherence to a similar level to that of sFn treatment of both cells; inhibition of monocyte adherence (A375 cells; [4]): inhibition was still observed

**Q.** With “KVILPRGGSVLVTC (CHAIN peptide comprising amino acids 8-21 on the ICAM-1 first immunoglobulin domain) [Peptide P3]” as the substance, how does the “inhibition of monocyte adherence” value (A375 cells; [2]) read?
**A.** little or no inhibition was observed
